In test [1] the target is T1, Na^+ channel in crude membrane preparation (trachea epithelial) (Bos taurus, UniProt A5D7U4+F1MJW3+P55270).
T1 construct: results for both the purified reconstituted channel protein and for the crude membrane preparation; from tissue; host or cells: trachea epithelial membranes, crude preparation (bovine)
T1 sequence (P55270 1-650): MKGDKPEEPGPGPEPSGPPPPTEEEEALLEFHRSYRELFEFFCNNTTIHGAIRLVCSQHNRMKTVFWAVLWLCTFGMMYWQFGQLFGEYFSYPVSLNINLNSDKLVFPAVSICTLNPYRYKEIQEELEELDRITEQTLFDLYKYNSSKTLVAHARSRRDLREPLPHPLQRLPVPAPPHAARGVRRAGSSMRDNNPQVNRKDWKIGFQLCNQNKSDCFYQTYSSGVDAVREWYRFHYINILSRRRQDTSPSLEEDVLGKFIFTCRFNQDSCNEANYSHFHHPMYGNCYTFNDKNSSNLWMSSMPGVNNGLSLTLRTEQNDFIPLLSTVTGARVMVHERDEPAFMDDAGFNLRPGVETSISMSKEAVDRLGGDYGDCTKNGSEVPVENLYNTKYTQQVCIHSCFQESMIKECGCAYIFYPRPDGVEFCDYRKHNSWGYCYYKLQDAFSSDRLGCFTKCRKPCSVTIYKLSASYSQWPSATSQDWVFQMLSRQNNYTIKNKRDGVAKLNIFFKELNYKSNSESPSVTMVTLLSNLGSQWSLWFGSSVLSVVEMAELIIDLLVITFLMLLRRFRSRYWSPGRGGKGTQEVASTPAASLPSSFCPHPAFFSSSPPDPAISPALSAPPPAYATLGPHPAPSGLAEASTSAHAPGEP
T1 sequence (A5D7U4 1-641): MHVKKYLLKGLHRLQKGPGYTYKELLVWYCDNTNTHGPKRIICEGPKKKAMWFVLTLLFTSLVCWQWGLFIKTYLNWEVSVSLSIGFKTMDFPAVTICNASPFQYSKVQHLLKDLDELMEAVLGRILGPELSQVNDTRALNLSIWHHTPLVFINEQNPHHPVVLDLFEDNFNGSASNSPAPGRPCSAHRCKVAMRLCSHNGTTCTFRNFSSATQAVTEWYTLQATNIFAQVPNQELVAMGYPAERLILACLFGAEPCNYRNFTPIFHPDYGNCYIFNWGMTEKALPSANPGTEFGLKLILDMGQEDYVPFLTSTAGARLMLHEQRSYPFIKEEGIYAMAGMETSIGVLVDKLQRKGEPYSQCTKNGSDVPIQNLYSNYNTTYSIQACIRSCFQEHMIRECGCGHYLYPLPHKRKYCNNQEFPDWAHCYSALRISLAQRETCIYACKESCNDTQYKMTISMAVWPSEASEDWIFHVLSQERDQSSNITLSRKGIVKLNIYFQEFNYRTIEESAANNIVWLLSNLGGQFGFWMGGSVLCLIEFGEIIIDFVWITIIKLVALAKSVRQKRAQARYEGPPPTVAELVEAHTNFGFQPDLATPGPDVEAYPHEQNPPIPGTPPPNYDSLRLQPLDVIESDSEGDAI
T1 sequence (F1MJW3 1-652): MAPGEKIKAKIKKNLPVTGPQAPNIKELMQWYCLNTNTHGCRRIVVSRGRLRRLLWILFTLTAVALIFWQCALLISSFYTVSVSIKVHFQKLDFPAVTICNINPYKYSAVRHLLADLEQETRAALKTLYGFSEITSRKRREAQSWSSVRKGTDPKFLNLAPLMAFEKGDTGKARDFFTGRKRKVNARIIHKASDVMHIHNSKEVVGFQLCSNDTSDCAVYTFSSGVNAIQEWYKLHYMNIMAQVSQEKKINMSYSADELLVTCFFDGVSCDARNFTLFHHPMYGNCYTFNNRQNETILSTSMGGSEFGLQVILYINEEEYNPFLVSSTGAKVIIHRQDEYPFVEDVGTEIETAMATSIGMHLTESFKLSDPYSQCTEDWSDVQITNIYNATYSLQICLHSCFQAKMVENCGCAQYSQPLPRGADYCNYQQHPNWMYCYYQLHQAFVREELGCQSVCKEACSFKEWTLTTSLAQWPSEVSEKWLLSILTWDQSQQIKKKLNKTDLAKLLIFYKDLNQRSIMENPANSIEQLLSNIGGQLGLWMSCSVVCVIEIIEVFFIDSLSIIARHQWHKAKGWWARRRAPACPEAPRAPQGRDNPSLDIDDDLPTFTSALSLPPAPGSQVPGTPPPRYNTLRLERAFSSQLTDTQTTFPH
In words: Amiloride inhibition of crude membrane preparation. The test is classed as biochemical, bovine.

For test [2], the target named is T2, purified Na^+ channel protein (Bos taurus, UniProt A5D7U4+F1MJW3+P55270).
T2 construct: purifying a membrane protein from bovine kidney cortex and bovine trachea epithelia apical membranes; from tissue
T2 sequence (P55270 1-650): T1 sequence (P55270 1-650)
T2 sequence (A5D7U4 1-641): T1 sequence (A5D7U4 1-641)
T2 sequence (F1MJW3 1-652): T1 sequence (F1MJW3 1-652)
In words: Amiloride inhibition of purified reconstituted channel. The test is classed as biochemical, bovine. On the procedure: By way of illustrative example, bovine kidney cortex cell membranes or bovine trachea apical cell membranes are collected and pooled until the pooled membranes contain about 100 mg of protein as determined by the Lowry method. The pooled membranes in 100 mM HEPES, pH 7.4, are centrifuged at 40,000 g for 30 minutes. The pelleted material was resuspended in 100 mM HEPES, pH 7.4, containing 3% sodium cholate (4.5-5.5 mg of membrane protein/3 ml of solution) containing in addition bacitracin (100 microgram/g), phenylmethylsulfonyl fluoride (0.5%) and iodoacetamide (1 mM). The mixture is chilled on ice for 60 minutes with occasional agitation, then centrifuged at 40,000 g for 30 minutes. The supernatant, containing the solubilized protein, may be purified immediately or frozen at -70° for later purification.
The solubilized protein preparation obtained from about 10 g of cell membrane is purified using 100 ml of the affinity gel described in Example 2. The protein solution and gel are stirred overnight in the cold. The gel is washed with 20 volumes of HEPES solution, pH 7.2, by filtration. The adsorbed protein is eluted with 10^-3 M amiloride in dilute saline containing 0.5% cholate by stirring for two hours. The elution was repeated and the combined eluates are dialyzed against 100 mM HEPES/1% sodium cholate for one week in the cold, changing buffers once or twice a day. […]

Structures are written as SMILES.

Among the data in patent US4950591A, “Membrane Na^+ channel protein and related therapeutic compounds” (priority 1987, dated 1990) are IC50 values, retold here.

In the case of `N=C(N)NC(=O)c1nc(Cl)c(N)nc1N` [amiloride, 3,5-diamino-N-(aminoiminomethyl)-6-chloropyrazinecarboxamide], the 50% inhibitory concentration (IC50) (usually the concentration at which inhibition is half-maximal) in test [1] was 100 nM; in test [2] (Amiloride, IC50 (micromolar), PURIFIED, Table I, trachea epithelial, purified reconstituted channel protein), 70 nM; in test [2] (IC50 (amiloride sensitivity of purified channel), purified channel) it was approximately 70 nM.
